Patent US20250171465A1, “AKT INHIBITORS” (Stablix, Inc., priority 2023, published 2025)
Where two headings read alike, the source gives them in different places.

How the values were obtained:
Type in all cases: cell-based
[1] = test system: KU1919.1; assay: Cell Titer Glo (CTG) proliferation assay, KU1919; details: KU1919.1 cells, 72.0 hrs., read-out: AVE CTG Proliferation KU1919.1 72.0 hrs.
Protocol: (§1) Seed cells in 40 μL of cell culture media into each well of 384-well cell culture plate, spin them at room temperature at 1,000 RPM for 1 minute and then transfer the plates into 37° C. 5% CO2 incubator overnight. Next day, treat cells with 40 nL of diluted compound and return to incubator. After compound treatment for 3 days, Add 30 μL of CellTiter-Glo reagent (Promega) into each well to be detected. Then place the plates at room temperature for 30 min followed by reading on EnVision. Inhibition activity calculated as % DMSO=100×(LumSample-Lum low control)/(Lum high control-Lum low control) where high control is from cells treated with 0.1% DMSO and Low control obtained from PBS only. Use XLFit (equation 201) to calculate IC50 (A+ ((B−A)/(1[…]((x/C)^D)))) where A: Bottom, B: Top, C: IC50, D: Slope.

[2] = test system: MDAMB231.1; assay: Cell Titer Glo (CTG) proliferation assay, MDA-MB-231; details: MDAMB231.1 cells, 72 hrs., read-out: AVE CTG Proliferation MDAMB231.1 72 hrs.
Protocol: as §1

[3] = test system: MDAMB468.1; assay: Cell Titer Glo (CTG) proliferation assay, MDA-MB-468; details: MDAMB468.1 cells, 72.0 hrs., read-out: AVE CTG Proliferation MDAMB468.1 72.0 hrs.
Protocol: as §1

| SMILES | IC50 [1] | IC50 [2] | IC50 [3] | IC50 ([1]; Homo sapiens, KU-19-19) | IC50 ([2]; Homo sapiens, MDA-MB-231) | IC50 ([3]; Homo sapiens, MDA-MB-468) |
| --- | --- | --- | --- | --- | --- | --- |
| NC1(C(=O)N[C@@H](CCO)c2ccc(Cl)cc2)CCN(c2nc[nH]c3nccc2-3)CC1 [AZD-5363, Capivasertib, reference compound] | > 10 µM | > 10 µM | > 10 µM | – | – | – |
| CCOc1cc(OC)ccc1CNCC(=O)N1CCCC(c2cccc(C(=O)N[C@@H](C(=O)N3CCN(CC4CCN(CC(=O)NCCNC[C@@H](C(=O)N5CCN(c6ncnc7c6[C@H](C)C[C@H]7O)CC5)c5ccc(Cl)cc5)CC4)CC3)C3CCCCC3)c2)C1 (stereo partly drawn) [Compound I-17] | – | – | – | 1 to 5 µM | 1 to 5 µM | 1 to 5 µM |
| CCc1cccc(-c2cnc(C(=O)N3CCC(OC4CCN(CC(=O)NCCNC[C@@H](C(=O)N5CCN(c6ncnc7c6[C@H](C)C[C@H]7O)CC5)c5ccc(Cl)cc5)CC4)CC3)c(NC(C)=O)c2)c1 [Compound I-196] | – | – | – | 1 to 5 µM | 5 to 10 µM | 5 to 10 µM |
| C[C@@H]1C[C@@H](O)c2ncnc(N3CCN(C(=O)C(CN4CCC(CN5CCN(C(=O)[C@H](NC(=O)c6cccc([C@H]7CCCN(C(=O)CNCc8ccc(F)cc8F)C7)c6)C6CCCCC6)CC5)CC4)c4ccc(Cl)cc4)CC3)c21 (stereo partly drawn) [Compound I-201] | – | – | – | 0.5 to 1 µM | 1 to 5 µM | 1 to 5 µM |
| C[C@@H]1C[C@@H](O)c2ncnc(N3CCN(C(=O)[C@H](CNCCNC(=O)CN4CCC(CN5CCN(C(=O)[C@H](NC(=O)c6cccc(C7CCCN(C(=O)CNCc8ccc(F)cc8F)C7)c6)C6CCCCC6)CC5)CC4)c4ccc(Cl)cc4)CC3)c21 (stereo partly drawn) [Compound I-204] | – | – | – | 1 to 5 µM | 1 to 5 µM | 1 to 5 µM |
| C[C@@H]1C[C@@H](O)c2ncnc(N3CCN(C(=O)[C@H](CNCCNC(=O)CN4CCC(CN5CCN(C(=O)c6cccc(C7CCCN(C(=O)CNC8CC8)C7)c6)CC5)CC4)c4ccc(Cl)cc4)CC3)c21 (stereo partly drawn) [Compound I-206] | – | – | – | > 10 µM | > 10 µM | > 10 µM |
| C[C@@H]1C[C@@H](O)c2ncnc(N3CCN(C(=O)[C@H](CNCCNC(=O)CN4CCC(CN5CCN(C(=O)c6cccc(C7CCCN(C(=O)CNCc8ccc(F)cc8F)C7)c6)CC5)CC4)c4ccc(Cl)cc4)CC3)c21 (stereo partly drawn) [Compound I-207] | – | – | – | > 10 µM | > 10 µM | > 10 µM |
| C[C@@H]1C[C@@H](O)c2ncnc(N3CCN(C(=O)[C@H](CNCCNC(=O)CN4CCC(OC5CCN(C(=O)[C@H](NC(=O)c6cccc(C7CCCN(C(=O)CNCc8ccc(F)cc8F)C7)c6)C6CCCCC6)CC5)CC4)c4ccc(Cl)cc4)CC3)c21 (stereo partly drawn) [Compound I-208] | – | – | – | 1 to 5 µM | 1 to 5 µM | 1 to 5 µM |
| C[C@@H]1C[C@@H](O)c2ncnc(N3CCN(C(=O)[C@H](CNCCNC(=O)CN4CCC(OC5CCN(C(=O)[C@H](NC(=O)c6cccc(C7CCCN(C(=O)CNC8CC8)C7)c6)C6CCCCC6)CC5)CC4)c4ccc(Cl)cc4)CC3)c21 (stereo partly drawn) [Compound I-209] | – | – | – | 5 to 10 µM | 5 to 10 µM | 5 to 10 µM |
| C[C@@H]1C[C@@H](O)c2ncnc(N3CCN(C(=O)C(CN4CCC(CN5CCN(C(=O)[C@H](NC(=O)c6cccc([C@H]7CCCN(C(=O)CNC8CC8)C7)c6)C6CCCCC6)CC5)CC4)c4ccc(Cl)cc4)CC3)c21 (stereo partly drawn) [Compound I-211] | – | – | – | 0.5 to 1 µM | 1 to 5 µM | 1 to 5 µM |
| CCc1cccc(-c2cnc(C(=O)N3CCN(CC4CCN(CC(=O)NCCNC[C@@H](C(=O)N5CCN(c6ncnc7c6[C@H](C)C[C@H]7O)CC5)c5ccc(Cl)cc5)CC4)CC3)c(N)c2)c1 [Compound I-213] | – | – | – | 1 to 5 µM | 1 to 5 µM | 1 to 5 µM |
| CCc1cccc(-c2cnc(C(=O)NCCOCCNCC(=O)NCCN(C[C@@H](C(=O)N3CCN(c4ncnc5c4[C@H](C)C[C@H]5O)CC3)c3ccc(Cl)cc3)C(C)C)c(NC(C)=O)c2)c1 [Compound I-216] | – | – | – | 1 to 5 µM | – | 1 to 5 µM |
| CCc1cccc(-c2cnc(C(=O)NCCOCCNCC(=O)NCCN(C[C@@H](C(=O)N3CCN(c4ncnc5c4[C@H](C)C[C@H]5O)CC3)c3ccc(Cl)cc3)C(C)C)c(N)c2)c1 [Compound I-217] | – | – | – | 1 to 5 µM | – | 1 to 5 µM |
| CCOc1cc(OC)ccc1CNCC(=O)N1CCC[C@H](c2cccc(C(=O)N[C@@H](C(=O)N3CCN(CC4CCN(CC(C(=O)N5CCN(c6ncnc7c6[C@H](C)C[C@H]7O)CC5)c5ccc(Cl)cc5)CC4)CC3)C3CCCCC3)c2)C1 (stereo partly drawn) [Compound I-219] | – | – | – | 0.5 to 1 µM | 1 to 5 µM | 1 to 5 µM |
| NC1(C(=O)N[C@@H](CCN2CCN(C(=O)CN3CCC(OC4CCN(C(=O)c5cc(C6CCCN(C(=O)CNCc7ccc(F)cc7F)C6)ccc5F)CC4)CC3)CC2)c2ccc(Cl)cc2)CCN(c2ncnc3[nH]ccc23)CC1 (stereo partly drawn) [Compound I-223] | – | – | – | 1 to 5 µM | – | 1 to 5 µM |
